# From ChEMBL document CHEMBL1201862, “PubChem BioAssay data set” (2004)
# The source made the active and inactive calls.
# Experiments:
# [1] = molecular target: RNA-editing ligase 1, mitochondrial (Trypanosoma brucei brucei, UniProt P86926); experiment: TbREL1 ligase inhibitors, dose response, biochemical, fluorescence, Trypanosoma brucei (AID 1117295); type: functional
# Major prion protein = Major prion protein (Homo sapiens, UniProt P04156); type: functional, cell-based
# cells [2] = experiment: cells
# [3] = Late stage counterscreen for inhibitors of Trypanosoma brucei methionyl tRNA synthetase (MetRS): Luminescence-based cell-based high throughput dose response assay to identify compounds that are cytotoxic to Jurkat human T lymphocyte cells.; type: functional
# [4] = inhibitors of intracellular T. cruzi replication, confirmation, NIH3T3 host cells, beta-gal luminescence (AID 2044); type: functional, cell-based;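 further: intracellular parasites grown in NIH/3T3 mouse fibroblasts as host cells; luminescent beta-galactosidase reporter signal from transgenic T. cruzi replicating inside host cells; inhibitors lower the luminescence signal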
# [5] = cytotoxicity toward NIH3T3 fibroblasts, dose response, counter-screen, cell-based, ATP luminescence, mouse fibroblasts (AID 2010); type: functional;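 further: cells exposed to compound for about 90 hours before reading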
# [6] = Luminescence Cell-Based Dose Retest to Confirm Inhibitors of Cancer Stem Cells. [Related pubchem assays (depositor defined):AID2717, AID2721]; type: functional; details: Homo sapiens
# cells [7] = experiment: cells; remark: listed apart in the source
# [8] = molecular target: T1, Methionyl-tRNA synthetase, putative (Trypanosoma brucei brucei, UniProt Q38C91); type: functional, Trypanosoma brucei brucei strain 927/4 GUTat10.1
# T1 sequence (Q38C91 whole entry): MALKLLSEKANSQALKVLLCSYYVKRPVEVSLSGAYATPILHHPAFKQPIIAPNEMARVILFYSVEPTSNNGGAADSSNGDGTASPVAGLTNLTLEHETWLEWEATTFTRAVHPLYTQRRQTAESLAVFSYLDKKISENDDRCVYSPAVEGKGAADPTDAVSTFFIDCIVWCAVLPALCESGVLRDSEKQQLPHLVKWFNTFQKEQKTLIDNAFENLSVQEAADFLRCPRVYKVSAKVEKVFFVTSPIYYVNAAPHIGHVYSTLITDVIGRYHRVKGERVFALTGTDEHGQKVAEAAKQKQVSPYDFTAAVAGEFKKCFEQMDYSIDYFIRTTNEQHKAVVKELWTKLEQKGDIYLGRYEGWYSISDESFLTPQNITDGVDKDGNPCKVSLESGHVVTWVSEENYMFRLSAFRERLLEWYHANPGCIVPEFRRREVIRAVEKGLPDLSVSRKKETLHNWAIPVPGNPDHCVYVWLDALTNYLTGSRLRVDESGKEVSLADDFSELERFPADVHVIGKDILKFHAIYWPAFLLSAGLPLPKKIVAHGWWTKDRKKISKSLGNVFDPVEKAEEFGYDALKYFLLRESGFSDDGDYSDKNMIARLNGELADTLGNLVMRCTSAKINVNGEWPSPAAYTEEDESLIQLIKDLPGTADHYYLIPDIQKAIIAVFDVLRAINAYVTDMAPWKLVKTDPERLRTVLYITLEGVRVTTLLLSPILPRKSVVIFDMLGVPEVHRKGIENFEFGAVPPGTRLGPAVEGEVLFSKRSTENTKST
# [9] = Counterscreen for inhibitors of Trypanosoma brucei methionyl tRNA synthetase (MetRS): Luminescence-based cell-based high throughput dose response assay to identify compounds that are cytotoxic to Jurkat human T lymphocyte cells.; type: functional
# [10] = molecular target: T1, Methionyl-tRNA synthetase, putative; type: functional, Trypanosoma brucei brucei strain 927/4 GUTat10.1; remark: listed apart in the source
# [11] = molecular target: T2, Oxysterols receptor LXR-beta (Homo sapiens, UniProt P55055); type: functional, cell-based;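 further: agonist activity at LXR measured by a cell-based luminescence readout across a dose range, run as a counterscreen for daf-12 agonists; HEK293 cells with Gal4-LXR fusion and GAL4-driven luciferase reporter; potency for activation of Gal4-LXR reporter so compounds are agonists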
# T2 sequence (P55055 whole entry): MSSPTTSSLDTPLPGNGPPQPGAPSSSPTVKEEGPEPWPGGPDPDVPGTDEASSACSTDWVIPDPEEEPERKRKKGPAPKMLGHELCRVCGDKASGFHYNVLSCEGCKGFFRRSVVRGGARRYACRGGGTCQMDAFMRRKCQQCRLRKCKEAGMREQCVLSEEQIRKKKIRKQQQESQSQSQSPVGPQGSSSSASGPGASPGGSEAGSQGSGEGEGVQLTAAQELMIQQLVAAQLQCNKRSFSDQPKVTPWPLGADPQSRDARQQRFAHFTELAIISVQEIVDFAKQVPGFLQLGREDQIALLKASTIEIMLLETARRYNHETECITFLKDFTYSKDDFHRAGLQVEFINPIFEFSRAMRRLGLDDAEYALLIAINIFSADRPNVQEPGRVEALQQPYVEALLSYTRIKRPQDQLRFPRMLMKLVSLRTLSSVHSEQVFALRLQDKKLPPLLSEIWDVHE
# [12] = molecular target: Endoplasmic reticulum aminopeptidase 1 (Homo sapiens, UniProt Q9NZ08); experiment: ERAP1 aminopeptidase inhibitors, dose response, biochemical, cherry-pick, set 2, plate reader (AID 743314)
# [13] = molecular target: Solute carrier family 12 member 2/member 5 (Homo sapiens, UniProt P55011+Q9H2X9); experiment: KCC2 and NKCC1 inhibition by rubidium flux, cell-based, NKCC1 counter-screen (AID 1734); type: functional, HEK293
# Prothrombin = Prothrombin (Homo sapiens, UniProt P00734); experiment: Thrombin 1536 HTS Dose Response Confirmation. [Related pubchem assays: 1046 (Thrombin 1536 HTS; hits were confirmed in this assay)]; type: functional
# [14] = molecular target: T3, Dual specificity protein phosphatase 6 (Rattus norvegicus, UniProt Q64346); experiment: MKP-3 phosphatase inhibitors, primary screen, biochemical, rat enzyme, in vitro (AID 425)
# T3 sequence (Q64346 whole entry): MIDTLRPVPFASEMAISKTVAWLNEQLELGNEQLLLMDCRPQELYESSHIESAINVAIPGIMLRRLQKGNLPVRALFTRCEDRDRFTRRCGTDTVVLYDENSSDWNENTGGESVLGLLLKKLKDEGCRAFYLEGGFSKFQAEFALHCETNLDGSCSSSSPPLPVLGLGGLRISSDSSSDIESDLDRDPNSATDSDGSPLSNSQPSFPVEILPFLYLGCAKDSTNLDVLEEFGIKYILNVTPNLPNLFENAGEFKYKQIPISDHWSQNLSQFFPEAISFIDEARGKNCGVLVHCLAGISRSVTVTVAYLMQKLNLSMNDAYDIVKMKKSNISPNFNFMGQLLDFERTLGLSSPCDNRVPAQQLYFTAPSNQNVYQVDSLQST
# [15] = molecular target: Induced myeloid leukemia cell differentiation protein Mcl-1 (Homo sapiens, UniProt Q07820); type: functional
# [16] = molecular target: Luciferin 4-monooxygenase (Photinus pyralis, UniProt P08659); experiment: firefly luciferase enzyme inhibitors, dose response, biochemical, luminescence (AID 1891)
# [17] = Luminescence Cell-Based Dose Confirmation HTS to Identify Inhibitors of Platelet Dense Granule Release. [Related pubchem assays: 1663 (Primary HTS), 1678 (Summary of Project)]; type: functional
# Protein skinhead-1 = molecular target: T4, Protein skinhead-1 (Caenorhabditis elegans, UniProt P34707); type: functional
# T4 sequence (P34707 whole entry): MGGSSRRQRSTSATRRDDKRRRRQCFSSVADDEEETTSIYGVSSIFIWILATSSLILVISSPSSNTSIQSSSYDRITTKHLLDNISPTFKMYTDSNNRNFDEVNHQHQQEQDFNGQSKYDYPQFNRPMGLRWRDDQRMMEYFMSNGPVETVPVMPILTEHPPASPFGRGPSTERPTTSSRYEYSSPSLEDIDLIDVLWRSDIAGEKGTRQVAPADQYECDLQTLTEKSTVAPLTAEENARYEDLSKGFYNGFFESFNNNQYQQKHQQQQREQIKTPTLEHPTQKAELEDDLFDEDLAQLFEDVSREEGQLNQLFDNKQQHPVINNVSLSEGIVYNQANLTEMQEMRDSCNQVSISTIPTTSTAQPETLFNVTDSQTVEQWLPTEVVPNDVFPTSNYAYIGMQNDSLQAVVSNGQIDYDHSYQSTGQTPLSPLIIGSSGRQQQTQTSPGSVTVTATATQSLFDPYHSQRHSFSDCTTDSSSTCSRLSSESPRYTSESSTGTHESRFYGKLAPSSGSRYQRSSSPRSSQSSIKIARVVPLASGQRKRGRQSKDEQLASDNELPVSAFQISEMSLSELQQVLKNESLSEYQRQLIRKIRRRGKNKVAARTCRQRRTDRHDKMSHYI
compound,measurement,setting,value
CCCCCCCN1C(Nc2ccccc2)=NC[C@@H]1CC(C)C,IC50,[1],> 96.6 µM (inactive)
O=C(O)CSc1ccnc2cc(Cl)ccc12,IC50,Major prion protein,4.04 µM (active)
same,IC50,cells [2],> 138 µM (inactive)
O=C(NCc1nc2ccccc2[nH]1)C1=C[C@H](c2ccccc2)C[C@H](OCc2ccc(CO)cc2)O1,IC50,[3],> 83.3 µM (inactive)
CN1CCC(OC(=O)c2cccc(Cl)c2)CC1,EC50,[4],< 0.1 µM (active)
same,EC50,[5],> 60 µM (not active)
same,AC50,[6],1.3 µM (active)
same,EC50,cells [7],0.102 µM (active)
COc1ccc(OCC(O)CNC(=O)Nc2ccc(Cl)cc2)cc1 (stereo not drawn),IC50,[8],4.39 µM (active)
same,IC50,[9],83.3 µM (inactive)
same,IC50,[10],4.66 µM (active)
same,IC50,[3],> 83.3 µM (inactive)
Cc1ccc2c(c1)N=C(c1ccccc1)CC(C(Cl)Cl)=N2,EC50,[11],> 67.5 µM (inactive)
CCN(CC)Cc1c(O)ccc2cc(-c3nc4ccccc4n3C)c(=O)oc12,AC50,[12],1.8 µM (active)
O=C(Nc1cccnc1)c1ccc(COc2ccccc2Cl)o1,IC50,[13],12.1 µM (active)
COc1cc(CCC(=O)Nc2cccc(C(F)(F)F)c2)cc(OC)c1OC,IC50,Prothrombin,> 50 µM (not active)
Cc1c(N=c2c(=O)c3ccccc3c2=O)c(=O)n(-c2ccccc2)n1C,IC50,[14],> 100 µM (not active)
O=C(CSc1nnc(-c2ccco2)c(-c2ccco2)n1)c1ccccc1,IC50,[15],3.19 µM (active)
same,IC50,[1],> 96.6 µM (inactive)
COc1cccc(-c2noc(-c3cccs3)n2)c1,EC50,[16],7.26 µM (active)
same,EC50,[17],> 112 µM (not active)
same,IC50,Protein skinhead-1,13.7 µM (active)
same,EC50,[11],> 67.6 µM (inactive)
